Activity calls are given as the source filed them. No cut-off for these calls is given here.
How the values were obtained:
Neuronal progenitor cell [1] = experiment: (§1) Induction of neurogenesis in human H9-derived neuronal progenitor cells at 10 uM assessed as increase in Tuj1 positive cells; assay type: functional
[2] = as §1; assay type: functional, Neuronal progenitor cell
Neuronal progenitor cell [3] = experiment: Induction of neurogenesis in human H9-derived neuronal progenitor cells at 0.3125 to 10 uM assessed as increase in Tuj1 protein levels incubated for 5 days by Western blotting method; assay type: functional
[4] = Ratio of drug level in brain to plasma in mouse; assay type: ADME, organism-based; conditions: read-out: BPR
[5] = Induction of neurogenesis in mouse neuronal progenitor cells at 0.1 to 10 uM assessed as increase in Tuj1 positive cells; assay type: functional, Neuronal progenitor cell
[6] = Induction of neurogenesis in human H9-derived neuronal progenitor cells at 0.1 to 10 uM assessed as increase in Tuj1 positive cells; assay type: functional, Neuronal progenitor cell
[7] = Toxicity in mouse neuronal progenitor cells at 0.1 to 10 uM assessed as increase in DAPI positive cells; assay type: cell-based; conditions: neuronal progenitor cell
[8] = Toxicity in human H9-derived neuronal progenitor cells at 0.1 to 10 uM assessed as increase in DAPI positive cells; assay type: cell-based; conditions: neuronal progenitor cell
[9] = Unbound fraction in C57BL/6 mouse brain; assay type: ADME, tissue-based; conditions: brain tissue
Plasma [10] = experiment: Plasma concentration in C57BL/6 mouse at 13.4 mg/kg, ip; assay type: ADME, organism-based; conditions: in vivo
Brain [11] = experiment: Drug concentration in C57BL/6 mouse brain at 13.4 mg/kg, ip; assay type: ADME, organism-based; conditions: in vivo, read-out: Drug uptake
Mus musculus [12] = experiment: Induction of neurogenesis in C57BL/6 mouse assessed as increase in BrdU+NeuN+/BrdU+ cells in dentate gyrus at 8.5 mg/kg, ip qd for 7 days and measured on day 14 by immunohistochemistry relative to vehicle control; assay type: functional
Mus musculus [13] = experiment: Induction of neurogenesis in C57BL/6 mouse assessed as increase in BrdU+NeuN+/BrdU+ cells in dentate gyrus at 8.5 mg/kg, ip qd for 7 days and measured on day 14 by immunohistochemistry relative to control; assay type: functional
[14] = Tmax in C57BL/6 mouse brain at 1.81 mg/kg, po; assay type: ADME, organism-based
[15] = Tmax in C57BL/6 mouse plasma at 1.81 mg/kg, po; assay type: ADME, organism-based
[16] = Tmax in C57BL/6 mouse plasma at 13.4 mg/kg, ip; assay type: ADME, organism-based
[17] = Cmax in C57BL/6 mouse brain at 1.81 mg/kg, po; assay type: ADME, organism-based; design: dose 1.81 mg/kg, route oral
[18] = Cmax in C57BL/6 mouse plasma at 1.81 mg/kg, po; assay type: ADME, organism-based; design: dose 1.81 mg/kg, route oral
[19] = Cmax in C57BL/6 mouse plasma at 13.4 mg/kg, ip; assay type: ADME, organism-based; design: dose 13.4 mg/kg, route intraperitoneal
[20] = Half life in C57BL/6 mouse plasma at 13.4 mg/kg, ip; assay type: ADME, organism-based
[21] = AUC (0 to t) in C57BL/6 mouse brain at 1.81 mg/kg, po; assay type: ADME, organism-based
[22] = AUC (0 to t) in C57BL/6 mouse plasma at 1.81 mg/kg, po; assay type: ADME, organism-based
[23] = AUC (0 to t) in C57BL/6 mouse plasma at 13.4 mg/kg, ip; assay type: ADME, organism-based
Brain [24] = experiment: Dose normalized AUC in C57BL/6 mouse brain at 1.81 mg/kg, po; assay type: ADME, organism-based; conditions: in vivo
Plasma [25] = experiment: Dose normalized AUC in C57BL/6 mouse plasma at 1.81 mg/kg, po; assay type: ADME, organism-based; conditions: in vivo
Plasma [26] = experiment: Dose normalized AUC in C57BL/6 mouse plasma at 13.4 mg/kg, ip; assay type: ADME, organism-based; conditions: in vivo
[27] = Ratio of drug level in brain to plasma in C57BL/6 mouse at 1.81 mg/kg, po; assay type: ADME, organism-based; conditions: read-out: BPR

For `N#Cc1cccc(COc2ccc3c(c2)CN2C(=O)CN(C4CCOCC4)C(=O)[C@H]2C3)c1`, the “fold change (FC)” value (Neuronal progenitor cell [1]) was “inactive”.
In the case of `N#Cc1cccc(COc2ccc3c(c2)CN2C(=O)CN(C4CCNCC4)C(=O)[C@H]2C3)c1`, the “fold change (FC)” value (Neuronal progenitor cell [1]) is reported as “inactive”.
In the case of `COC[C@@H]1C(=O)N2Cc3cc(OCc4cccc(C#N)c4)ccc3C[C@@H]2C(=O)N1C1CCCC1`, the “fold change (FC)” value [2] is reported as 2.36.
In the case of `O=C1[C@H]2Cc3ccc(OCc4cccc(Cl)c4)cc3CN2C(=O)CN1C1CCCC1`, the “fold change (FC)” value [2] is reported as 2.29.
For `N#Cc1cccc(OCc2ccc3c(c2)CN2C(=O)CN(C4CCCC4)C(=O)[C@H]2C3)c1`, the “fold change (FC)” value [2] was 2.
With `CCNC(=O)c1cccc(COc2ccc3c(c2)CN2C(=O)CN(C4CCCC4)C(=O)[C@H]2C3)c1` the “fold change (FC)” value [2] was 1.65.
For `N#Cc1cccc(COc2ccc3c(c2)CN2C(=O)CN(C4CCCCC4)C(=O)[C@H]2C3)c1`, the “fold change (FC)” value [2] was 2.02.
With `N#Cc1cccc(COc2ccc3c(c2)CN2C(=O)[C@@H](CO)N(C4CCCC4)C(=O)[C@H]2C3)c1` the “fold change (FC)” value [2] was 2.36.
For `N#Cc1cccc(COc2ccc3c(c2)CN2C(=O)CN(C4CCCC4)C(=O)[C@@H]2C3)c1`, the “fold change (FC)” value (Neuronal progenitor cell [1]) was “inactive”.
For `O=C1[C@H]2Cc3ccc(OCc4ccccc4)cc3CN2C(=O)CN1C1CCCC1`, the “fold change (FC)” value [2] was 2.07.
For `N#Cc1cccc(COc2ccc3c(c2)CN2C(=O)[C@H](CO)N(C4CCCC4)C(=O)[C@H]2C3)c1`, the “fold change (FC)” value (Neuronal progenitor cell [1]) was “inactive”.
For `N#Cc1cccc(COc2ccc3c(c2)CN2C(=O)CN(C4CCN(CCF)CC4)C(=O)[C@H]2C3)c1`, the “fold change (FC)” value [2] was 1.91.
With `N#Cc1csc(COc2ccc3c(c2)CN2C(=O)CN(C4CCCC4)C(=O)[C@H]2C3)c1` the “fold change (FC)” value [2] was 1.74.
In the case of `O=C1[C@H]2Cc3ccc(OCc4cccc(F)c4)cc3CN2C(=O)CN1C1CCCC1`, the “fold change (FC)” value [2] is reported as 1.83.
With `CCOC(=O)C[C@H]1CC[C@H](N2CC(=O)N3Cc4cc(OCc5cccc(C#N)c5)ccc4C[C@@H]3C2=O)CC1` the “fold change (FC)” value [2] was 1.69.
In the case of `COC[C@H]1C(=O)N2Cc3cc(OCc4cccc(C#N)c4)ccc3C[C@@H]2C(=O)N1C1CCCC1`, the “fold change (FC)” value [2] is reported as 1.55.
With `O=C1[C@H]2Cc3ccc(OCc4cccc(N5CCOCC5)c4)cc3CN2C(=O)CN1C1CCCC1` the “fold change (FC)” value [2] was 2.06.
In the case of `N#Cc1cccc(COc2ccc3c(c2Br)CN2C(=O)CN(C4CCCC4)C(=O)[C@H]2C3)c1`, the Activity (Neuronal progenitor cell [3]) is reported as “Dose-dependent effect”, the “fold change (FC)” value [2] is reported as 1.9 and the Kp [4] is reported as 0.5. For the same compound, the “fold change (FC)” value [5] was 1.2, the “fold change (FC)” value [6] was 1.8 and the Activity [7] was “Non-toxic”. The Activity [8] was “Non-toxic”.
With `N#Cc1cccc(COc2ccc3c(c2)CN2C(=O)CN(C4CCN(CC(F)(F)F)CC4)C(=O)[C@H]2C3)c1` the “fold change (FC)” value (Neuronal progenitor cell [1]) was “inactive”.
In the case of `N#Cc1cccc(COc2ccc3c(c2)CN2C(=O)CN(CC4CC4)C(=O)[C@H]2C3)c1`, the “fold change (FC)” value [2] is reported as 1.57.
For `C[C@@H]1C(=O)N2Cc3cc(OCc4cccc(C#N)c4)ccc3C[C@@H]2C(=O)N1C1CCCC1`, the “fold change (FC)” value [2] was 2.41.
With `CCN(Cc1cccc(C#N)c1)c1ccc2c(c1)CN1C(=O)CN(C3CCCCC3)C(=O)[C@H]1C2` the “fold change (FC)” value [2] was 1.45.
For `O=C1[C@H]2Cc3ccc(OCc4ccc(Cl)cc4)cc3CN2C(=O)CN1C1CCCC1`, the “fold change (FC)” value [2] was 2.09.
For `CN(Cc1cccc(C#N)c1)c1ccc2c(c1)CN1C(=O)CN(C3CCCCC3)C(=O)[C@H]1C2`, the “fold change (FC)” value [2] was 1.67.
For `N#Cc1cccc(COc2ccc3c(c2)CN2C(=O)CN(C4CCN(CC(F)F)CC4)C(=O)[C@H]2C3)c1`, the “fold change (FC)” value (Neuronal progenitor cell [1]) was “inactive”.
For `N#Cc1cccc(COc2ccc3c(c2)CN2C(=O)CN(C4CCNCC4(F)F)C(=O)[C@H]2C3)c1` (stereo not given in full), the “fold change (FC)” value [2] was 1.78.
In the case of `N#Cc1cccc(CNc2ccc3c(c2)CN2C(=O)CN(C4CCCCC4)C(=O)[C@H]2C3)c1`, the “fold change (FC)” value [2] is reported as 1.53.
In the case of `N#Cc1cccc(COc2ccc3c(c2)CN2C(=O)CN(C4CCCC4)C(=O)[C@H]2C3)c1`, the “fold change (FC)” value [2] is reported as 2.35, the fraction unbound [9] is reported as 0.02 and the concentration (Plasma [10]) is reported as 8.4 µM. For the same compound, the concentration (Brain [11]) was 6.1 µM, the Activity (Mus musculus [12]) was 11.7% and the “fold change (FC)” value (Mus musculus [13]) was 1.3. The Tmax [14] was 1 h, the Tmax [15] was 1 h and the Tmax [16] was 0.25 h. For the same compound, the Cmax [17] was 92 ng/mL, the Cmax [18] was 126 ng/mL and the Cmax [19] was 3500 ng/mL. The half-life [20] was 4.95 h, the AUC(0-t) [21] was 280 ng·h/mL and the AUC(0-t) [22] was 534 ng·h/mL. For the same compound, the AUC(0-t) [23] was 10500 ng·h/mL, the AUC/dose (Brain [24]) was 155 ng·h/mL/mg/kg and the AUC/dose (Plasma [25]) was 296 ng·h/mL/mg/kg. It also gave an AUC/dose (Plasma [26]) of 794 ng·h/mL/mg/kg and a Kp [27] of 0.1.
For `N#Cc1cccc(COc2ccc3c(c2)CN2C(=O)CN(CC4CCC4)C(=O)[C@H]2C3)c1`, the “fold change (FC)” value [2] was 2.12.
In the case of `C[C@H]1C(=O)N2Cc3cc(OCc4cccc(C#N)c4)ccc3C[C@@H]2C(=O)N1C1CCCC1`, the “fold change (FC)” value [2] is reported as 1.98.

Reference: ChEMBL document CHEMBL3603820, “Discovery of a novel 2,3,11,11a-tetrahydro-1H-pyrazino[1,2-b]isoquinoline-1,4(6H)-dione series promoting neurogenesis of human neural progenitor cells” (Bioorg Med Chem Lett, 2015)
